Data set [1] has as its system PfNF54. The data set can be described thus: In vitro ABS antiplasmodial activity, pLDH assay, drug-sensitive NF54. The data set is classed as cell-based, Plasmodium falciparum. To be noted: read-out: PfNF54 IC50 ± SEM. An excerpt: (§1) This side chain is also present in the well-known antiplasmodial agent, FQ.
(§2) Test samples were screened in technical duplicate or triplicate, for three or four biological replicates, for their in vitro blood stage antiplasmodial activity against both the drug-sensitive (NF54) and multidrug-resistant (K1) strains of . Continuous in vitro cultures of asexual erythrocyte stages of were maintained using a modified method of Trager and Jensen. A quantitative assessment of the in vitro antiplasmodial activity was determined via the parasite lactate dehydrogenase (pLDH) assay, using a modified method described by Makler and Hinrichs.
(§3) The test samples were prepared to a 20 mg/mL stock solution in 100% DMSO. Stock solutions were stored at −20 °C. Further dilutions were prepared in complete medium on the day of the experiment. […] Chloroquine diphosphate (CQDP) was used as the reference drug in all experiments. Test samples were tested at a starting concentration of either 100 μg/mL, 50 μg/mL, 10 μg/mL, or 1 μg/mL, which was then serially diluted 2-fold, in complete medium, to give 10 concentrations. The same dilution technique was used for all samples. […] The IC50 values were obtained from full dose–response curves, using a nonlinear dose–response curve fitting analysis, via GraphPad Prism v.5 software.

Data set [2] has as its system PfK1. The data set can be described thus: microbe, parasite or virus in culture. The data set is classed as cell-based, Plasmodium falciparum. The settings on record: read-out: PfK1 IC50 ± SEM.
Excerpt: as §1, §2, §3

In data set [3] the test system is β-hematin formation. The data set can be described thus: NP-40 detergent-mediated β-hematin formation inhibition assay (cell-free). The data set is classed as biochemical. The settings on record: NP-40, pH 4.8, 5 h, 37 °C, read-out: β-hematin formation inhibition IC50 ± SEM. An excerpt:
The ability of a compound to inhibit Hz formation can be predicted using the biomimetic cell-free NP40 detergent-mediated β-hematin formation inhibition assay. , This assay mimics the conditions in the acidic DV of the parasite and relies on the binding of pyridine to uncrystallized free heme to detect the inhibition of β-hematin formation using UV–vis spectroscopy (with absorbance measured at 405 nm). , Consequently, the ability of the ferrocenyl quinoline-benzimidazole hybrids (C1–C5) to inhibit β-hematin (synthetic Hz) formation was investigated as a potential mechanism of antiplasmodial action.
The β-hematin formation inhibition assay was modified from the method reported by Sandlin et al. , Stock solutions of the respective test compounds were prepared to 10 mM, in 100% DMSO, with the exception of CQ (used in the salt form, CQDP), which was prepared in Milli-Q water. […] NP-40 is a detergent used to mediate the formation of β-hematin. The solution in column 12 was then serially diluted 2-fold, through to column 2, to give a total of 11 concentrations. Column 1 contained 0 μM of the test compound and thus served as a blank. […] A 178.8 μL aliquot of this hematin suspension was added to 20.0 mL of a 2 M acetate buffer (pH = 4.8) and 100 μL of this solution added to each well. The plates were then covered and incubated for 5 h, at 37 °C. The assay was analyzed using the pyridine-ferrochrome method developed by Ncokazi and Egan. A solution containing water/acetone/2 M HEPES buffer (pH 7.4)/pyridine, in a v/v ratio of 2/2/1/5, was prepared and 32 μL was added to all wells, followed by 60 μL of acetone. The absorbance values were then measured at 405 nm, the results plotted using GraphPad Prism (v5), and the IC50 values obtained using a sigmoidal dose–response curve fitting analysis.

Data set [4] has as its system Immature gametocytes (>90% stage II/III). The data set can be described thus: microbe, parasite or virus in culture. The data set is classed as cell-based, Plasmodium falciparum. To be noted: for % Inhibition, immature gametocytes: maximum inhibition at 10 μM, 48 h drug pressure; for inhibition at 5 µM: Plasmodium falciparum, read-out: % Inhibition, immature gametocytes (controls). The protocol:
(§4) Compounds are diluted 3-fold in at least a 9-point serial dilution series starting at 20 μM, with a nonlethal DMSO concentration of <0.1% maintained. Luciferase activity was determined in 30 μL parasite lysates by adding 30 μL luciferin substrate (Promega Luciferase Assay System) at room temperature and detection of resultant bioluminescence at an integration constant of 10 s with the GloMax-Multi + Detection System with Instinct Software. Methylene blue (5 μM) and the clinical antimalarial candidate MMV390048 (5 μM) were used as controls. IC50 values were determined in GraphPad Prism using a nonlinear regression fit with variable slope (4-parameter) on the dose–response data.
(§5) Assay quality parameters are evaluated for each assay, including Z′-factors (data quality compared to reproducibility using signal, noise, and background parameters; accepted metric >0.6), regression (accepted r 2 > 0.9); >80% viable parasites (top plateau); <20% killed parasites (bottom plateau), hill slope ∼1.

The subject of data set [5] is Mature gametocytes (>95% stage V). The data set can be described thus: microbe, parasite or virus in culture. It counts as cell-based, Plasmodium falciparum. To be noted: for % Inhibition, mature gametocytes: maximum inhibition at 10 μM, 48 h drug pressure; for inhibition at 5 µM: Plasmodium falciparum, read-out: % Inhibition, mature gametocytes (controls). The protocol: as §4, §5

The nature of data set [6]: Hydroxyl radical (ROS) generation with H2O2, DCFH2 fluorescent probe. To be noted: 200 μM in 1:4 DMSO/PBS, H2O2 and H2DCF added, 30 min. The text has this:
Fluorogenic redox-sensitive probes are often employed to measure the presence of ROS, due to their low cost, ease of use, and nontoxicity, allowing for spectrofluorimetric measurements. 2′,7′-Dichlorodihydrofluorescein diacetate (DCFH2-DA) is the most widely used fluorogenic probe. Cleavage of the acetate groups, through alkaline hydrolysis, generates 2′,7′-dichlorodihydrofluorescein (DCFH2), which in the presence of oxidants, yields the highly fluorescent 2′,7′-dichlorofluorescein (DCF, λem = 523 nm). The DCFH2 probe reacts with an array of oxidants, making it an ideal indicator of general oxidative stress. […] The presence of these radicals was confirmed by monitoring the fluorescence over time (Figure ). […].
Stock solutions of DCFH2-DA were prepared to 1 mM in 100% DMSO and stored at −20 °C in the dark until use. The deacetylation of DCFH2-DA involved adding 2 μL of a 0.5 M NaOH solution to 200 μL of the 1 mM DCFH2-DA stock solution. The solution was mixed for 30 min, in the dark, at room temperature and then quenched with 800 μL of PBS buffer to obtain a 200 μM H2DCF 1:4 DMSO/PBS solution mixture.
[…]. The fluorometer was blanked using a 1:4 DMSO/PBS solution mixture. To identify hydroxyl radical production, 2 μL of a 0.5% H2O2 solution was added to 900 μL of the 200 μM complex solution in a cuvette at 25 °C. 100 μL of the prepared H2DCF solution (200 μM) was quickly added, and the readings recorded at 530 nm (emission wavelength), at 2 min intervals, over 30 min.

The nature of data set [7]: Cyclic voltammetry of the ferrocene/ferrocenium couple. The data set is classed as physicochemical. To be noted: for Reversibility of the ferrocene/ferrocenium couple: DCM/0.1 M TBAP system; for Ipc/Ipa / ΔE / Anodic peak potential Epa / Cathodic peak potential Epc / Half-wave potential E1/2: scan rate 100 mV/s, CH2Cl2, 0.1 M TBAP; for Anodic peak potential Epa / Cathodic peak potential Epc / Half-wave potential E1/2: vs Ag/AgCl. The protocol: It has been proposed that the oxidation of ferrocene (Fe(C5H5)2) to the ferrocenium cation (Fe(C5H5)2 ^+) is a reversible one-electron transfer process. […] This prompted the investigation into the electrochemical properties of the Fe(C5H5)2/Fe(C5H5)2 ^+ couple in complexes C1–C5, using cyclic voltammetry. FQ was used as the reference, as it is considered the benchmark for all newly developed ferrocenyl-based antiplasmodials.
Nuclear magnetic resonance (NMR) spectra were recorded on a Bruker XR600 MHz spectrometer (^1H at 599.95 MHz and ^13C{^1H} at 151.0 MHz), a Bruker […] (^1H at 400.22 MHz and ^13C{^1H} at 100.65 MHz), or a Varian Mercury 300 (^1H at 300.08 MHz) spectrometer. These were equipped with a Bruker Biospin GmbH casing and sample injector at 30 °C and tetramethylsilane (TMS) was used as the internal standard. Coupling constants are reported in Hz and chemical shifts are reported in ppm relative to residual solvent signals. Infrared (IR) spectroscopy was performed on a PerkinElmer Spectrum 100 FT-IR spectrometer, using attenuated total reflectance (ATR), with vibrations measured in units of cm^–1. Cyclic voltammetric measurements were carried out at ambient temperature under an inert argon atmosphere using a three-electrode system on a BASi Epsilon Eclipse potentiostat/galvanostat electrochemical workstation. The C-3 cell stand, equipped with a glassy carbon working electrode, Ag/AgCl (saturated NaCl) reference electrode, and a Pt wire auxiliary electrode were used to carry out electrochemical measurements. All experiments were carried out in anhydrous dichloromethane containing 0.10 M tetra-n-butylammonium perchlorate (TBAP) as the supporting electrolyte.

The subject of data set [8] is CHO cell line.
Protocol: (§6) The samples were tested over 48 h against the Chinese hamster ovarian (CHO) cell line to determine general cytotoxicity. […] Quantitative assessment of toxic activity in vitro was determined via the MTT assay using the method described. Cell viability was determined colorimetrically using the breakdown of a dye by enzymes of the electron transport chain, taking place in the mitochondria of metabolically active living cells, as a marker for survival.
(§7) Compounds were tested in triplicate on a single occasion against these cells using the MTT assay. The test samples were prepared to a 10 mM stock solution, in 100% DMSO, and stored at −20 °C until use. Samples were tested as a suspension if not completely dissolved. Further dilutions to the desired starting concentration were freshly prepared in growth media at the start of the experiment.
(§8) Cells were plated to a density of 10^5 cells/well in 96-well plates and allowed to attach for 24 h. […] After 44 h MTT was added, and the plates were read 4 h later at 540 nm on a spectrophotometer following the addition of 100 μL of DMSO and gentle plate-shaking to solubilize and visualize the dye. Survival was plotted against concentration, and the IC50 values were obtained using a nonlinear dose–response curve fitting analysis via the Dotmatics software platform.
Data set [9] concerns CHO cell line. Kind of data set: Cytotoxicity, MTT assay. To be noted: selectivity index. (In general: Tetrazolium assays rely on reduction of a dye to a coloured formazan, in cell work by metabolically active cells.)
Protocol: as §6, §7, §8
Setting [10] is: drug-sensitive NF54, ABS, pLDH, 48 h incubation.
The mark [11] stands for this setting: MDR K1, ABS, pLDH, 48 h incubation.

Results on seven molecules are retold here after publication PMC12344774, “Ferrocenyl Quinoline-Benzimidazole Hybrids: A Multistage Strategy to Combat Drug-Resistant Malaria” (Inorganic Chemistry, 2025).

Where two headings read alike, the source gives them in different places. Some results are limits rather than exact numbers.

Take `CCN(CC)CCCC(C)Nc1ccnc2cc(Cl)ccc12` (stereo not shown) [CQ, chloroquine, reference compound]: the IC50 – broadly, the concentration that inhibits the measured activity by half – in data set [1] (Plasmodium falciparum, NF54, 48 h) came out at 15 ± 1 nM; in data set [2] (Plasmodium falciparum, 48 h) it was 170 ± 10 nM; in [3] it was 11000 ± 870 nM.

For `Cc1ccc2c(c1)nc(-[c-]1cccc1)n2CCNCCNc1ccnc2cc(Cl)ccc12.[Fe+2].c1cc[cH-]c1` [Complex C2, N1-(7-Chloroquinolin-4-yl)-N2-(2-(5-methyl-2-ferrocenyl-1H-benzo[d]imidazole-1-yl)ethyl)ethane-1,2-diamine], the IC50 in data set [1] (setting [10]) amounted to 38 ± 2 nM. Besides, the concentration for half-maximal inhibition (IC50) in data set [2] (setting [11]) amounted to 9.4 ± 0.9 nM. Also, the “% Inhibition, immature gametocytes” value in data set [4] is listed as 75%. In data set [5], the “% Inhibition, mature gametocytes” value stood at 32%. In [3], the IC50 came out at 4470 nM. The “Hydroxyl radical generation (fluorescence intensity over time)” value in data set [6] is “no changes in the fluorescence intensity”. Moreover, in data set [7], the “Reversibility of the ferrocene/ferrocenium couple” value is “chemically and electrochemically reversible”; the Ipc/Ipa is on record as 1.03; the ΔE came to 0.133 V; the “Anodic peak potential Epa” value was 0.651 V. In data set [7], the “Cathodic peak potential Epc” value stood at 0.518 V and the “Half-wave potential E1/2” value amounted to 0.584 V. Also, in [8], the CC50 (as a rule, the concentration that lowers cell viability or growth by half) is over 50000 nM.

Turning to `Cc1ccc2c(c1)nc(-[c-]1cccc1CN(C)C)n2CCNCCNc1ccnc2cc(Cl)ccc12.[Fe+2].c1cc[cH-]c1` (stereo not shown) [Complex C4, N1-(7-Chloroquinolin-4-yl)-N2-(2-(5-methyl-2-(2-N,N-dimethylaminomethyl)ferrocenyl-1H-benzo[d]imidazole-1-yl)ethyl)ethane-1,2-diamine], the IC50 in data set [1] (setting [10]) was determined as 38 ± 3 nM; in [2] (setting [11]), 170 ± 20 nM; in data set [3], 4900 nM. Also, in data set [4], the “% Inhibition, immature gametocytes” value stood at 59%. The “% Inhibition, mature gametocytes” value in data set [5] amounted to 72%. For the same molecule, the “Hydroxyl radical generation (fluorescence intensity over time)” value in [6] is on record as “produce hydroxyl radicals”. Also, the “Reversibility of the ferrocene/ferrocenium couple” value in data set [7] is “chemically and electrochemically irreversible”. For the same molecule, the “Anodic peak potential Epa” value in [7] is given as 0.662 V. This molecule also showed a CC50 in [8] of 29800 ± 500 nM. The “SI (CC50 CHO/IC50 NF54)” value in [9] turned out to be 784.2.

With `Cc1ccc2c(c1)nc(-[c-]1cccc1)n2CCN(CCNc1ccnc2cc(Cl)ccc12)[c-]1cccc1.[Fe+2].[Fe+2].c1cc[cH-]c1.c1cc[cH-]c1` [Complex C5, N1-Ferrocenyl-N2-(7-Chloroquinolin-4-yl)-N1-(2-(5-methyl-2-ferrocenyl-1H-benzo[d]imidazole-1-yl)ethyl)ethane-1,2-diamine], in [1] (setting [10]), the IC50 is 1510 ± 140 nM. For the same molecule, the IC50 in data set [2] (setting [11]) amounted to 14500 ± 1140 nM. Besides, in data set [4], the “% Inhibition, immature gametocytes” value was 60%. Moreover, the “% Inhibition, mature gametocytes” value in data set [5] was 32%. The concentration for half-maximal inhibition (IC50) in data set [3] came out at 37700 ± 770 nM. Besides, the “Hydroxyl radical generation (fluorescence intensity over time)” value in [6] is “no changes in the fluorescence intensity”. Further, in data set [7], the “Reversibility of the ferrocene/ferrocenium couple” value is “chemically and electrochemically reversible”; the Ipc/Ipa stood at 1.04; the ΔE is recorded as 0.190 V; the “Anodic peak potential Epa” value came to 0.632 V. Also, in [7], the “Cathodic peak potential Epc” value is on record as 0.442 V and the “Half-wave potential E1/2” value was found to be 0.537 V. The molecule further registered a CC50 in data set [8] of over 50000 nM.

For the molecule `[Fe+2].c1cc[cH-]c1.c1cc[cH-]c1` [Ferrocene, reference compound], the “Hydroxyl radical generation (fluorescence intensity over time)” value in [6] is listed as “generate hydroxyl radicals”. In [7], the Ipc/Ipa is 1.05, the ΔE is on record as 0.171 V, the “Anodic peak potential Epa” value is recorded as 0.543 V and the “Cathodic peak potential Epc” value amounted to 0.372 V. For the same molecule, the “Half-wave potential E1/2” value in [7] is reported as 0.458 V.

As to `CS(=O)(=O)c1ccc(-c2cnc(N)c(-c3ccc(C(F)(F)F)nc3)c2)cc1` [MMV390048, reference compound], the inhibition (as a rule, the drop in the measured response relative to a control, in per cent) at 5 µM in data set [4] was over 77%; in [5], over 93%.

Regarding `CN(C)c1ccc2nc3ccc(=[N+](C)C)cc-3sc2c1` [Methylene blue, reference compound], the inhibition at 5 µM was over 97% in [4] and 100% in data set [5].
